Assay results reported in article PMC12316777.

Legend:
SARS-CoV-2 nsp13 [1] = biological target: T1, SARS-CoV-2 nsp13 (Severe acute respiratory syndrome coronavirus 2, UniProt P0DTD1); test: Metal displacement analysis (equilibrium dialysis, ICP-MS), nsp13; type: binding
Experimental: Nsp13 also consists of 3 zinc finger sites at its N-terminal zinc-binding domain. Therefore, we first investigated whether Au(I) could interact with zinc fingers in nsp13 by equilibrium dialysis.
Au(I) binding and Zn(II) release on nsp10 and nsp14 were determined by Inductively Coupled Plasma Mass Spectrometry (ICP-MS) on Agilent 7700 × ICP-MS (Agilent Technologies). […] Dialysis tubes loaded with 100 μL Zn-bound proteins (5 μM for nsp14 and nsp13 and 20 μM for nsp10) or protein buffer were placed into 50 mL dialysis buffer in the presence of different concentrations of Au(I) compounds (as Au(PEt3)Cl) with mild shaking at 18 °C overnight. The protein concentration was measured by bicinchoninic acid (BCA) assay, and the metal concentration of solution both inside and outside the dialysis tubes was determined by ICP-MS.

SARS-CoV-2 nsp13 [2] = biological target: T1, SARS-CoV-2 nsp13; test: BODIPY FL ATP-γ-S fluorescence assay (ATP binding); settings: for fluorescence intensity of BODIPY FL ATP-γ-S with nsp13: 1 μM compound, 10 min pre-incubation, 10 nM BODIPY FL ATP-γ-S
SARS-CoV-2 nsp13 [3] = biological target: T1, SARS-CoV-2 nsp13; test: EMSA of nsp13 binding to dsDNA substrate; settings: 2 μM nsp13, 0, 2, 10 and 20 μM compound, 2 h, 100 nM DNA
Experimental: We preincubated 2 μM nsp13 with different concentrations (0, 2, 10 and 20 μM) of Au(PEt3)Cl for 2 h at room temperature, then incubated with 100 nM DNA substrate to form the protein-dsDNA complex.
EMSA for investigating the binding between nsp13 and DNA substrates was performed as previously reported. Briefly, 2 μM nsp13 was incubated with Au(PEt3)Cl in a dose-dependent manner in 20 μL binding buffer (20 mM Tris pH 7.4, 20 mM NaCl, 1 mM TCEP, 5 mM MgCl2) for 2 h at 25 °C. Then, incubated per sample at 37 °C with 100 nM dsDNA. After 15 min incubation, the reaction was stopped by 4 μL loading buffer (50% glycerol, 0.02% bromophenol blue). The reaction mixture was electrophoresed in 8% native-polyacrylamide gels at 150 V for 1 h. The gel was stained by GelRed (Sigma Aldrich) for 10 min and images were captured by iBright™ CL750 Imaging System (Thermo Fisher Scientific).
Fig. S3 EMSA image of the binding between DNA substrate and nsp13 in the presence of increasing
amounts of Au(I)- based compound (as Au(PEt3)Cl).
(1 picture or pasted object on this page, not shown here)

[4] = biological target: T2, SARS-CoV-2 nsp13 (helicase) (Severe acute respiratory syndrome coronavirus 2, UniProt P0DTD1); test: ATPase assay (phosphate release); type: biochemical; settings: for IC50: 20 nM nsp13, n = 3, read-out: IC50 (± SD) ATPase
[5] = biological target: T2, SARS-CoV-2 nsp13 (helicase); test: FRET DNA duplex unwinding assay; type: biochemical; settings: for IC50: 20 nM nsp13, n = 3, read-out: IC50 (± SD) DNA unwinding
[6] = system: SARS-CoV-2 variants Omicron BA.5.2 and XBB in VeroE6-TMPRSS2 cells; type: cell-based

Compound | fluorescence intensity of BODIPY FL ATP-γ-S with nsp13 (SARS-CoV-2 nsp13 [2]) | IC50 [4] | inhibition of ATPase activity ([4]; 50 mol equiv of compound) | IC50 [5] | inhibition of DNA unwinding activity ([5]; 50 mol equiv of compound) | further results
CCP(CC)CC.[Au+].[Cl-] [Au(PEt3)Cl, chloro(triethylphosphine)gold(I)] | decreased | 400 ± 90 nM | more than 50% | 330 ± 40 nM | more than 50% | Au(I) bound to nsp13 (SARS-CoV-2 nsp13 [1]; equilibrium dialysis, ICP-MS): ca. 2.97 ± 0.20 mol equiv; Zn(II) release from nsp13 (SARS-CoV-2 nsp13 [1]; equilibrium dialysis, ICP-MS): ca. 2.88 ± 0.18 mol equiv; maximal binding capacity (Bmax), nsp13 (SARS-CoV-2 nsp13 [1]; nonlinear fit to specific binding plot): 3.33 ± 0.11; Kd (SARS-CoV-2 nsp13 [1]; nonlinear fit to specific binding plot, read-out: dissociation constant (Kd), nsp13): 2290 ± 220 nM; fluorescence intensity of BODIPY FL ATP-γ-S with nsp13, dose dependence (SARS-CoV-2 nsp13 [2]; 0.1, 0.2, 0.5 and 1 μM): decreased in a dose-dependent manner; effect on binding of nsp13 to dsDNA (SARS-CoV-2 nsp13 [3]): did not disrupt
CC[PH](CC)(CC)[Au][S]CC(NC(=O)CCC(N)C(=O)O)C(=O)NCC(=O)O [Au-GSH, ((R)-2-((S)-4-amino-4-carboxybutanamido)-3-((carboxymethyl)amino)-3-oxopropyl)thiolate)-(triethyl-phosphine)-gold(I)] | – | – | – | – | – | ATPase enzymatic activity remaining ([4]; 50 mol equiv of compound): 51.33%; DNA unwinding enzymatic activity remaining ([5]; 50 mol equiv of compound): 41.67%
[Cl][Au] [AuCl, gold(I) chloride] | decreased | 200 ± 10 nM | more than 50% | 200 ± 30 nM | more than 50% | –
O=S(=O)([O-])[S-].O=S(=O)([O-])[S-].[Au+].[Na+].[Na+].[Na+] [Na3Au(S2O3)2, gold(I) sodium thiosulfate] | decreased | 250 ± 80 nM | more than 50% | 380 ± 50 nM | more than 50% | –
CC(=O)OC[C@H]1O[C@@H]([S-])[C@H](OC(C)=O)[C@@H](OC(C)=O)[C@@H]1OC(C)=O.CCP(CC)CC.[Au+] [auranofin] | – | – | – | – | – | maximum reduction of viral load in the cell culture supernatant [6]: 4 − 6 log10 units
(1-(adamantan-1-yl)thiourea)-(triethylphosphine)-gold(I) [Au-amantadine] | decreased | 1150 ± 230 nM | – | 720 ± 130 nM | – | –
